What all share (assay type): cell-based
Assay [1] deals with T1, humanP2X7 (Homo sapiens, UniProt Q99572).
T1 construct: expressed in transfected cells; host or cells: HEK-293
T1 sequence (Q99572 1-595): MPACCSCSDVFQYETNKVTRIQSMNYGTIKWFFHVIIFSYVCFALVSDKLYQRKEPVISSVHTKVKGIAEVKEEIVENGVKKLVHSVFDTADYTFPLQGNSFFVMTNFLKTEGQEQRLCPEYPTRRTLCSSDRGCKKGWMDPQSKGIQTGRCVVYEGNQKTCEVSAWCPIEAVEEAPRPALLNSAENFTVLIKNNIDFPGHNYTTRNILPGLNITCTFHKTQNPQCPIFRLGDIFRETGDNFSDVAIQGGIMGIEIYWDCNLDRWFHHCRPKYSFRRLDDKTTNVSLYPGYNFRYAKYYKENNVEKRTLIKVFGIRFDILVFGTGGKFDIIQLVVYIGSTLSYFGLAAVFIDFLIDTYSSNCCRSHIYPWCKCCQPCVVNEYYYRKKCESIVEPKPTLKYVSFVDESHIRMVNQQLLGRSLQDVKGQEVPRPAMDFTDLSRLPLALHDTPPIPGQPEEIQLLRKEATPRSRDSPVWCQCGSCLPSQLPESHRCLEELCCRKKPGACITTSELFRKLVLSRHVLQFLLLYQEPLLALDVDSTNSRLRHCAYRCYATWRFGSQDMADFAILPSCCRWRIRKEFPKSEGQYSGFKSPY
The experiment in a line: P2X7 channel calcium-influx assay (Fluo-8, FLIPR TETRA), human P2X7. To be noted: HEK-293 cells stably transfected with P2X7; Bz-ATP at EC80; low divalent cation buffer; read-out: humanP2X7 (activity range). In outline: (§1)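 HEK-293 cells stably expressing the respective species' P2X7, Fluo-8 NW loaded 1 h at RT in low divalent buffer (0.3 mM Ca2+, 0 mM Mg2+). Compound preincubated 5 min, then Bz-ATP at EC80; FLIPR calcium influx over 3 min. IC50 from % inhibition relative to reference antagonist A438079, reported as potency bins.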

Assay [2] concerns the target T2, mouseP2X7 (Mus musculus, UniProt Q9Z1M0).
T2 construct: expressed in transfected cells; host or cells: HEK-293
T2 sequence (Q9Z1M0 1-595): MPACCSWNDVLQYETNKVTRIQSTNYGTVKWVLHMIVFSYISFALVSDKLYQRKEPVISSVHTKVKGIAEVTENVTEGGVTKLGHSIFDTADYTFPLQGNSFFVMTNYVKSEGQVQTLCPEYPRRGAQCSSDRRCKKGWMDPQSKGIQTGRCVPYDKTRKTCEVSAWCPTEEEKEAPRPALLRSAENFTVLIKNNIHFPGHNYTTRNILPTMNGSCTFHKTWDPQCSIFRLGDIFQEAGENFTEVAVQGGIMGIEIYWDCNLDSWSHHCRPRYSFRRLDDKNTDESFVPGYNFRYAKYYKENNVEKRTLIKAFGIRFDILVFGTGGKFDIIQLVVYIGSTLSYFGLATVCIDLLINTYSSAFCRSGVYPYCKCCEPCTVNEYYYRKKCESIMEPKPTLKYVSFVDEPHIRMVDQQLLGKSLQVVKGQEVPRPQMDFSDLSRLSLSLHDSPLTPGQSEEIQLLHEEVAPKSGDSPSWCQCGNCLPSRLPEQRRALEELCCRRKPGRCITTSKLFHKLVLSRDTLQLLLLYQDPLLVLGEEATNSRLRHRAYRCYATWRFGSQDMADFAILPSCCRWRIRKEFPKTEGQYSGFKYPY
Put plainly: P2X7 channel calcium-influx assay (Fluo-8, FLIPR TETRA), mouse P2X7. To be noted: HEK-293 cells stably transfected with P2X7; Bz-ATP at EC80; low divalent cation buffer; read-out: mouseP2X7 (activity range). In outline: as §1

The target of assay [3] is T3, human P2X7 channel (Homo sapiens, UniProt Q99572).
T3 construct: expressed in transfected cells; host or cells: HEK-293
T3 sequence (Q99572 1-595): T1 sequence (Q99572 1-595)
The experiment in a line: human P2X7 channel assay by automated patch-clamp (QPatch 16X). To be noted: HEK-293 cells expressing P2X7; current evoked by 100 microM BzATP; whole-cell, held at -80 mV; read-out: human Q-Patch (activity range). In outline:
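Whole-cell patch clamp on HEK-293 cells expressing P2X7, room temperature, held at −80 mV, CsF internal and NaCl external (pH 7.4). Currents evoked by 100 microM BzATP, four controls then with compound at 1, 10, 100 and 1000 nM; peak inward current normalized, IC50 from dose-response fit, reported as potency bins.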

The target in assay [4] is T4, ratP2X7 (Rattus norvegicus, UniProt Q64663).
T4 construct: expressed in transfected cells; host or cells: HEK-293
T4 sequence (Q64663 1-595): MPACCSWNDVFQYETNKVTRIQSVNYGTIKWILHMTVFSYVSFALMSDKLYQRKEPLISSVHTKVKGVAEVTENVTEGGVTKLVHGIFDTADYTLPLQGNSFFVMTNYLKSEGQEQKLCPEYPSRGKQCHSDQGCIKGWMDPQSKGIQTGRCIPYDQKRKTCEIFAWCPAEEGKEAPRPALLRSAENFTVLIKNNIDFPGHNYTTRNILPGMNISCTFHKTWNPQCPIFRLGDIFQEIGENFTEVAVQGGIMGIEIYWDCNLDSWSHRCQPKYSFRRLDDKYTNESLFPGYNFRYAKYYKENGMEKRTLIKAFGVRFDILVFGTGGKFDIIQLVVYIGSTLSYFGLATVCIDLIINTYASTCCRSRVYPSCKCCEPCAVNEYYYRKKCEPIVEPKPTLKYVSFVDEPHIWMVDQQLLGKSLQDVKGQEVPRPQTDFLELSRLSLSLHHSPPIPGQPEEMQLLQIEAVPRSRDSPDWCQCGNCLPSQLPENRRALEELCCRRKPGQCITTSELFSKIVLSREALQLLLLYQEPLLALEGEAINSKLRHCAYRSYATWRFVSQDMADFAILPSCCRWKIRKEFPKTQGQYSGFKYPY
The experiment in a line: P2X7 channel calcium-influx assay (Fluo-8, FLIPR TETRA), rat P2X7. To be noted: HEK-293 cells stably transfected with P2X7; Bz-ATP at EC80; low divalent cation buffer; read-out: ratP2X7 (activity range). In outline:
as §1

The record followed here is patent publication US20240368092A1, “2,4-Dihydro-3H-1,2,4-Triazol-3-One P2X7 Antagonists” (Breye Therapeutics ApS, priority 2021, published 2024).

`O=c1n(CCC(F)(F)F)nc(Cc2c(F)cccc2Cl)n1CC1CCC(F)(F)CC1` [Example 57, 5-[(2-chloro-6-fluorophenyl)methyl]-4-[(4,4-difluorocyclohexyl)methyl]-2-(3,3,3-trifluoropropyl)-2,4-dihydro-3H-1,2,4-triazol-3-one]: the IC50 in assay [1] is under 200 nM; in assay [2], under 200 nM; in assay [3] it was 10 to 100 nM; in assay [4], under 200 nM.
For the molecule `O=c1n(CC(F)F)nc(Cc2c(F)cccc2Cl)n1CC1CCC(F)(F)CC1` [Example 58, 5-[(2-chloro-6-fluorophenyl)methyl]-4-[(4,4-difluorocyclohexyl)methyl]-2-(2,2-difluoroethyl)-2,4-dihydro-3H-1,2,4-triazol-3-one], the IC50 in assay [1] was under 200 nM; in assay [2] it was under 200 nM; in assay [3], 10 to 100 nM; in assay [4] it was under 200 nM.
`CCn1nc(CC2CCCCCC2)n(Cc2c(F)cccc2Cl)c1=O` [Example 60, 4-[(2-chloro-6-fluorophenyl)methyl]-5-(cycloheptylmethyl)-2-ethyl-2,4-dihydro-3H-1,2,4-triazol-3-one]: the IC50 in assay [1] is 200 to 1000 nM; in assay [2] it was 1000 to 10000 nM; in assay [3], 100 to 1000 nM; in assay [4], under 200 nM.
Consider `O=c1n(CC(F)(F)F)nc(CC2CCCCCC2)n1Cc1c(F)cccc1Cl` [Example 61, 4-[(2-chloro-6-fluorophenyl)methyl]-5-(cycloheptylmethyl)-2-(2,2,2-trifluoroethyl)-2,4-dihydro-3H-1,2,4-triazol-3-one], for which the IC50 was 200 to 1000 nM in assay [1], 1000 to 10000 nM in assay [2], 100 to 1000 nM in assay [3] and under 200 nM in assay [4].
Turning to `O=c1n(CC(F)(F)F)nc(Cc2ccccc2Cl)n1CC1CCC(F)(F)CC1` [Example 62, 5-[(2-chlorophenyl)methyl]-4-[(4,4-difluorocyclohexyl)methyl]-2-(2,2,2-trifluoroethyl)-2,4-dihydro-3H-1,2,4-triazol-3-one], the IC50 is under 200 nM in assay [1], under 200 nM in assay [2], under 10 nM in assay [3] and under 200 nM in assay [4].
Regarding `CCn1nc(Cc2ccccc2Cl)n(CC2CCC(F)(F)CC2)c1=O` [Example 63, 5-[(2-chlorophenyl)methyl]-4-[(4,4-difluorocyclohexyl)methyl]-2-ethyl-2,4-dihydro-3H-1,2,4-triazol-3-one], the IC50 in assay [1] is under 200 nM; in assay [2], 200 to 1000 nM; in assay [3], 10 to 100 nM; in assay [4], under 200 nM.
Take `CCn1nc(Cc2c(F)cccc2Cl)n(CC2CCC(F)(F)C2)c1=O` (stereo not drawn) [Example 65, 5-[(2-chloro-6-fluorophenyl)methyl]-4-[(3,3-difluorocyclopentyl)methyl]-2-ethyl-2,4-dihydro-3H-1,2,4-triazol-3-one]: the IC50 in assay [1] fell in the range of 1000 to 10000 nM; in assay [2] it was 10000 to 30000 nM; in assay [3], 1000 to 10000 nM; in assay [4], 200 to 1000 nM.
As for `O=c1n(CC2CC2)nc(Cc2c(F)cccc2Cl)n1CC1CCC(F)(F)C1` (stereo not drawn) [Example 66, 5-[(2-chloro-6-fluorophenyl)methyl]-2-(cyclopropylmethyl)-4-[(3,3-difluorocyclopentyl)methyl]-2,4-dihydro-3H-1,2,4-triazol-3-one], the IC50 was 200 to 1000 nM in assay [1], 1000 to 10000 nM in assay [2], 100 to 1000 nM in assay [3] and under 200 nM in assay [4].
As to `O=c1n(CC(F)(F)F)nc(Cc2c(F)cccc2Cl)n1CC1CCCCCC1` [Example 67, 5-[(2-chloro-6-fluorophenyl)methyl]-4-(cycloheptylmethyl)-2-(2,2,2-trifluoroethyl)-2,4-dihydro-3H-1,2,4-triazol-3-one], the IC50 was under 200 nM in assay [1], under 200 nM in assay [2], 10 to 100 nM in assay [3] and under 200 nM in assay [4].
On to `CN1CCCCC1Cn1c(Cc2c(F)cccc2Cl)nn(CC(F)(F)F)c1=O` (stereo not drawn) [Example 68, 5-[(2-chloro-6-fluorophenyl)methyl]-4-[(1-methylpiperidin-2-yl)methyl]-2-(2,2,2-trifluoroethyl)-2,4-dihydro-3H-1,2,4-triazol-3-one], for which the IC50 in assay [1] fell in the range of 1000 to 10000 nM; in assay [2] it was 1000 to 10000 nM; in assay [3] it was 1000 to 10000 nM; in assay [4] it was 200 to 1000 nM.
With `O=c1n(CC2CC2)nc(Cc2c(F)cccc2Cl)n1CC1CCC(C(F)(F)F)CC1` (stereo not drawn) [Example 69, 5-(2-chloro-6-fluorobenzyl)-2-(cyclopropylmethyl)-4-((4-(trifluoromethyl)cyclohexyl)methyl)-2,4-dihydro-3H-1,2,4-triazol-3-one], the IC50 was under 200 nM in assay [1], 200 to 1000 nM in assay [2], 10 to 100 nM in assay [3] and under 200 nM in assay [4].
For `O=c1n(CC(F)(F)F)nc(CC2CCC(F)(F)CC2)n1Cc1c(F)cccc1Cl` [Example 70, 4-[(2-chloro-6-fluorophenyl)methyl]-5-[(4,4-difluorocyclohexyl)methyl]-2-(2,2,2-trifluoroethyl)-2,4-dihydro-3H-1,2,4-triazol-3-one], the IC50 is 200 to 1000 nM in assay [1], 1000 to 10000 nM in assay [2], 100 to 1000 nM in assay [3] and under 200 nM in assay [4].
